ChEMBL document CHEMBL3885861, “Open TG-GATES”

Organism: Rattus norvegicus
Experiment: Open TG-GATES - Regimen: Single
Type: toxicity, organism-based, Sprague-Dawley
Set-up: regimen Single, gender Male, age 6 weeks
Settings: in vivo, po, 20 mg/kg, route gavage, dose level Low; for APTT / Bas / Eos / Fbg / Hb / Ht / Lym / MCH / MCHC / MCV / Mono / Neu / PT / Plat / RBC / Ret / WBC: tissue Blood; for KIDNEY_L / KIDNEY_R / KIDNEY_TOTAL: tissue Kidney; for LIVER: tissue Liver; for A/G / ALP / ALT / AST / BUN / CRE / Ca / Cl / DBIL / GLC / IP / K / LDH / Na / PL / RALB / TBIL / TC / TG / TP / gamma-GTP: tissue Plasma

Compound `CC(CN1c2ccccc2Sc2ccccc21)N(C)C` (configuration not stated) [PROMETHAZINE] has a TERMINAL_BW (3 h) of 208 g, an APTT (3 h) of 23.7 s and a Bas (3 h) of 0%. The Eos (3 h) was 0.6%, the Fbg (3 h) was 325.8 mg/dL and the Hb (3 h) was 13.5 g/dL. The Ht (3 h) was 41.2%, the Lym (3 h) was 81.4% and the MCH (3 h) was 20.7 pg. For the same compound, the MCHC (3 h) was 32.7%, the MCV (3 h) was 63.3 fL and the Mono (3 h) was 2.2%. The Neu (3 h) was 15.4%, the PT (3 h) was 16.4 s and the Plat (3 h) was 114.7 x10_4/uL. It also gave an RBC (3 h) of 651.2 x10_4/ul, a Ret (3 h) of 8.2% and a WBC (3 h) of 78 x10_2/uL. The KIDNEY_L (3 h) was 0.9 g, the KIDNEY_R (3 h) was 0.9 g and the KIDNEY_TOTAL (3 h) was 1.8 g. For the same compound, the LIVER (3 h) was 9.2 g, the A/G (3 h) was 1.2 and the ALP (3 h) was 1475 IU/L. It also gave an ALT (3 h) of 53.2 IU/L, an AST (3 h) of 73.6 IU/L and a BUN (3 h) of 10.6 mg/dL. It also gave a CRE (3 h) of 0.2 mg/dL, a Ca (3 h) of 10.5 mg/dL and a Cl (3 h) of 105.8 meq/L. It also gave a DBIL (3 h) of 0.018 mg/dL, a GLC (3 h) of 177.8 mg/dL and an IP (3 h) of 9.1 mg/dL. It also gave a K (3 h) of 4.3 meq/L, an LDH (3 h) of 202.2 IU/L and a Na (3 h) of 142.4 meq/L. It also gave a PL (3 h) of 140.2 mg/dL, an RALB (3 h) of 2.9 g/dL and a TBIL (3 h) of 0.02 mg/dL. For the same compound, the TC (3 h) was 82 mg/dL, the TG (3 h) was 60.4 mg/dL and the TP (3 h) was 5.4 g/dL. For the same compound, the gamma-GTP (3 h) was 1.2 IU/L, the TERMINAL_BW (6 h) was 211.9 g and the APTT (6 h) was 22.9 s. It also gave a Bas (6 h) of 0%, an Eos (6 h) of 0.6% and a Fbg (6 h) of 315 mg/dL. The Hb (6 h) was 13.2 g/dL, the Ht (6 h) was 40% and the Lym (6 h) was 83.4%. The MCH (6 h) was 20.5 pg, the MCHC (6 h) was 33.1% and the MCV (6 h) was 62.1 fL. The Mono (6 h) was 2.2%, the Neu (6 h) was 13.2% and the PT (6 h) was 16.9 s. The Plat (6 h) was 118.2 x10_4/uL, the RBC (6 h) was 644.8 x10_4/ul and the Ret (6 h) was 7.8%. It also gave a WBC (6 h) of 108.7 x10_2/uL, a KIDNEY_L (6 h) of 0.9 g and a KIDNEY_R (6 h) of 1 g. For the same compound, the KIDNEY_TOTAL (6 h) was 1.9 g, the LIVER (6 h) was 9 g and the A/G (6 h) was 1.3. For the same compound, the ALP (6 h) was 1313.4 IU/L, the ALT (6 h) was 41.2 IU/L and the AST (6 h) was 72.2 IU/L. It also gave a BUN (6 h) of 10.4 mg/dL, a CRE (6 h) of 0.2 mg/dL and a Ca (6 h) of 10.9 mg/dL. The Cl (6 h) was 105.4 meq/L, the DBIL (6 h) was 0.014 mg/dL and the GLC (6 h) was 178.8 mg/dL. For the same compound, the IP (6 h) was 9.7 mg/dL, the K (6 h) was 4.3 meq/L and the LDH (6 h) was 161 IU/L. For the same compound, the Na (6 h) was 141.4 meq/L, the PL (6 h) was 131.2 mg/dL and the RALB (6 h) was 3.1 g/dL. It also gave a TBIL (6 h) of 0.03 mg/dL, a TC (6 h) of 76.2 mg/dL and a TG (6 h) of 69.8 mg/dL. It also gave a TP (6 h) of 5.5 g/dL, a gamma-GTP (6 h) of 1.2 IU/L and a TERMINAL_BW (9 h) of 213 g. The APTT (9 h) was 22.5 s, the Bas (9 h) was 0% and the Eos (9 h) was 0.4%. For the same compound, the Fbg (9 h) was 311.4 mg/dL, the Hb (9 h) was 13 g/dL and the Ht (9 h) was 39.2%. For the same compound, the Lym (9 h) was 77.8%, the MCH (9 h) was 20.2 pg and the MCHC (9 h) was 33%. The MCV (9 h) was 61.3 fL, the Mono (9 h) was 2% and the Neu (9 h) was 18.6%. The PT (9 h) was 16.8 s, the Plat (9 h) was 119.8 x10_4/uL and the RBC (9 h) was 639.8 x10_4/ul. It also gave a Ret (9 h) of 7.2%, a WBC (9 h) of 108 x10_2/uL and a KIDNEY_L (9 h) of 1 g. It also gave a KIDNEY_R (9 h) of 1 g, a KIDNEY_TOTAL (9 h) of 1.9 g and an LIVER (9 h) of 8.6 g. It also gave an A/G (9 h) of 1.2, an ALP (9 h) of 1421.2 IU/L and an ALT (9 h) of 43.4 IU/L. The AST (9 h) was 69 IU/L, the BUN (9 h) was 11.4 mg/dL and the CRE (9 h) was 0.2 mg/dL. It also gave a Ca (9 h) of 10.9 mg/dL, a Cl (9 h) of 105 meq/L and a DBIL (9 h) of 0.008 mg/dL. The GLC (9 h) was 183.8 mg/dL, the IP (9 h) was 10.2 mg/dL and the K (9 h) was 4.3 meq/L. The LDH (9 h) was 152.8 IU/L, the Na (9 h) was 140.8 meq/L and the PL (9 h) was 123.2 mg/dL. For the same compound, the RALB (9 h) was 2.9 g/dL, the TBIL (9 h) was 0.018 mg/dL and the TC (9 h) was 72.2 mg/dL. For the same compound, the TG (9 h) was 51.4 mg/dL, the TP (9 h) was 5.4 g/dL and the gamma-GTP (9 h) was 1.4 IU/L. For the same compound, the TERMINAL_BW (24 h) was 220.8 g, the APTT (24 h) was 22.2 s and the Bas (24 h) was 0%. For the same compound, the Eos (24 h) was 0.8%, the Fbg (24 h) was 317.2 mg/dL and the Hb (24 h) was 13.4 g/dL. It also gave a Ht (24 h) of 39.8%, a Lym (24 h) of 79.8% and an MCH (24 h) of 20.8 pg. For the same compound, the MCHC (24 h) was 33.6%, the MCV (24 h) was 62 fL and the Mono (24 h) was 2.4%. For the same compound, the Neu (24 h) was 16.4%, the PT (24 h) was 16.6 s and the Plat (24 h) was 117.2 x10_4/uL. For the same compound, the RBC (24 h) was 643.4 x10_4/ul, the Ret (24 h) was 7.2% and the WBC (24 h) was 125.3 x10_2/uL. It also gave a KIDNEY_L (24 h) of 0.9 g, a KIDNEY_R (24 h) of 0.9 g and a KIDNEY_TOTAL (24 h) of 1.9 g. For the same compound, the LIVER (24 h) was 10.1 g, the A/G (24 h) was 1.3 and the ALP (24 h) was 1645.6 IU/L. It also gave an ALT (24 h) of 49.8 IU/L, an AST (24 h) of 76 IU/L and a BUN (24 h) of 17.4 mg/dL. It also gave a CRE (24 h) of 0.2 mg/dL, a Ca (24 h) of 11 mg/dL and a Cl (24 h) of 106 meq/L. For the same compound, the DBIL (24 h) was 0 mg/dL, the GLC (24 h) was 188 mg/dL and the IP (24 h) was 6.8 mg/dL. It also gave a K (24 h) of 4.1 meq/L, an LDH (24 h) of 154 IU/L and a Na (24 h) of 142.6 meq/L. It also gave a PL (24 h) of 146.2 mg/dL, an RALB (24 h) of 3.1 g/dL and a TBIL (24 h) of 0.002 mg/dL. The TC (24 h) was 78.2 mg/dL, the TG (24 h) was 109.2 mg/dL and the TP (24 h) was 5.5 g/dL. For the same compound, the gamma-GTP (24 h) was 1.6 IU/L.
